Tests used:
Assay type in all cases: physicochemical
[1] = Solubility of polymorphs I and II in water; conditions: for Solubility in water: at 20° C. in water
[2] = Stability on storage under ICH conditions
Text: Three batches of monohydrate I and one batch of monohydrate II were stored under ICH conditions. […] No decomposition products were observed, and no other parameters of the specification were changed substantially. On storage, the batches maintained their solid state.

[3] = Dissolution of the active compound during preparation of the pharmaceutical
Method: Differences between the two monohydrates I and II were observed during dissolution of the active compound. In general, the time required to get monohydrate I into solution is 45 minutes at 40-50° C.

[4] = 6 months at 40° C./75% relative atmospheric humidity
[5] = 36 months at 25° C./60% relative atmospheric humidity
[6] = 36 months at 30° C./75% relative atmospheric humidity

SMILES | Solubility in water (in words) ([1]; water) | Solubility in water [1] | Stability on storage [2, 4] | Stability on storage [2, 5] | Stability on storage [2, 6] | dissolution state during the time monohydrate I needs ([3]; 45 minutes at 40-50° C.) | time required to get into solution ([3]; at 40-50° C.)
O=C([O-])CN1CCN(CC(=O)[O-])CCN(C(CO)C(O)CO)CCN(CC(=O)[O-])CC1.[Gd+3] (centres unmarked) [gadobutrol, Gd complex of N-(1-hydroxymethyl-2,3-dihydroxypropyl)-1,4,7-triscarboxymethyl-1,4,7,10-tetraazacyclododecane] | soluble in water in almost any ratio | – | – | – | – | – | –
O.O=C([O-])CN1CCN(CC(=O)[O-])CCN([C@H](CO)[C@H](O)CO)CCN(CC(=O)[O-])CC1.[Gd+3] [monohydrate II] | – | 922 ± 9 mg/mL | remained unchanged | remained unchanged | remained unchanged | incompletely dissolved | –
O.O=C([O-])CN1CCN(CC(=O)[O-])CCN([C@H](CO)[C@H](O)CO)CCN(CC(=O)[O-])CC1.[Gd+3] [monohydrate I] | – | 1081 ± 2 mg/mL | remained unchanged | remained unchanged | remained unchanged | – | 45 min
